One data set addresses T1, CYP17A1 (Homo sapiens, UniProt P05093).
T1 sequence (P05093 whole entry): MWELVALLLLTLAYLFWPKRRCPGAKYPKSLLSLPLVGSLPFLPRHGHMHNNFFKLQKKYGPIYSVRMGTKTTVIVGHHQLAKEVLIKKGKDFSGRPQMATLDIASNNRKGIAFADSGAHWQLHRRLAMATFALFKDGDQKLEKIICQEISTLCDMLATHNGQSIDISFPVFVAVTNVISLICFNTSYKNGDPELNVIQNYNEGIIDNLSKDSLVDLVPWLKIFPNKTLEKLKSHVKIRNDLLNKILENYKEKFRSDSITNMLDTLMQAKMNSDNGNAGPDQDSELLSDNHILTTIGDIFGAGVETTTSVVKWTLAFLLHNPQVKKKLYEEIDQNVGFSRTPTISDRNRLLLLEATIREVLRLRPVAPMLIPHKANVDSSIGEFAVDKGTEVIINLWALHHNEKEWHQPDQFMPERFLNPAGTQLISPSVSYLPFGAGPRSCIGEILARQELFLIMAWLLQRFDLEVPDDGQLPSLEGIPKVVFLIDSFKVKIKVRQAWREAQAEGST
Put plainly: Inhibition of human CYP17A1 expressed in Escherichia coli XL1 at 2 uM using [3H]-progesterone as substrate preincubated with substrate for 5 mins measured after 45 mins by HPLC analysis. The class given is ADME. The note with it: human CYP17A1 expressed in Escherichia coli XL1, probe [3H]-progesterone.

For a further data set, the target named is T2, CYP19A1 (aromatase) (Homo sapiens, UniProt P11511).
T2 sequence (P11511 whole entry): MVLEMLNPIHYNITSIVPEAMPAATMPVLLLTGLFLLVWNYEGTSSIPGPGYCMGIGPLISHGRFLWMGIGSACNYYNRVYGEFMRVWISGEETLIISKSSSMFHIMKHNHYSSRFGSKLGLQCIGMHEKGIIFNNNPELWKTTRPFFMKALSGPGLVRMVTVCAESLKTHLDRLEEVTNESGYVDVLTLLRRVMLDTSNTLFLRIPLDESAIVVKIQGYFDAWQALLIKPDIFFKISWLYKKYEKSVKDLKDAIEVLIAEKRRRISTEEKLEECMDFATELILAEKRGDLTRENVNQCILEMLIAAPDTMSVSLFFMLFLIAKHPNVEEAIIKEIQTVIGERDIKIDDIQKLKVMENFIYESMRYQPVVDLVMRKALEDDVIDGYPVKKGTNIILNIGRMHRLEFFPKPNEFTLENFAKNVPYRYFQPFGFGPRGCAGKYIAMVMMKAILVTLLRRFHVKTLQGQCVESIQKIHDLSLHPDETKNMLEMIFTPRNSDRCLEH
Briefly: Inhibition of human placental microsomal CYP19A1 at 2 uM using [1beta-3H]androstenedione after 21 mins by liquid scintillation spectrometry. The note with it: placental microsomes, probe [1beta-3H]androstenedione. It counts as ADME.

Data set [1] in a line: Half life in human plasma at 1 uM up to 150 mins by LC-MS/MS analysis. It counts as ADME, cell-free.
The test system of data set [2] is Salmonella typhimurium. Briefly: Mutagenicity in Salmonella typhimurium TA98 up to 100 uM in absence of rat liver S9 fraction by Ames 2 assay. It counts as toxicity, organism-based. The conditions noted are these: salmonella enterica subsp. enterica serovar typhimurium.
The test system of data set [3] is Salmonella typhimurium. Put plainly: Mutagenicity in Salmonella typhimurium TA7001/7002/7003/7004/7005/7006 up to 100 uM in absence of rat liver S9 fraction by Ames 2 assay. The class given is toxicity, organism-based. The note with it: salmonella enterica subsp. enterica serovar typhimurium.
Data set [4] relates to Salmonella typhimurium. Briefly: Mutagenicity in Salmonella typhimurium TA98 up to 100 uM in presence of rat liver S9 fraction by Ames 2 assay. The note with it: salmonella enterica subsp. enterica serovar typhimurium. It counts as toxicity, organism-based.
In data set [5] the target is T3, 11-beta-hydroxysteroid dehydrogenase type 2 (Homo sapiens, UniProt P80365).
T3 sequence (P80365 whole entry): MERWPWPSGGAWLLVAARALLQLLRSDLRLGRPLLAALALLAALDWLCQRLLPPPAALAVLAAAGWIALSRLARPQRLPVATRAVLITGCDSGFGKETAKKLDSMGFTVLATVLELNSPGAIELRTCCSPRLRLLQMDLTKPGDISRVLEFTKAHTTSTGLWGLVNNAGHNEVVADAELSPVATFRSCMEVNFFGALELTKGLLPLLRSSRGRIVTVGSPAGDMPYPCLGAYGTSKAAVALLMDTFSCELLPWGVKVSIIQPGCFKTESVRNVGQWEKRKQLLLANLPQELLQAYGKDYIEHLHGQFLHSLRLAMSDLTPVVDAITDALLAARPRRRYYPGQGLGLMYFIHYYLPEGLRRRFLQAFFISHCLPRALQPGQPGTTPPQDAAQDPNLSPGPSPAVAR
Briefly: Inhibition of human 11beta-HSD2 expressed in HEK293 cell lysates at 200 uM using [1,2,6,7-3H]-cortisol as substrate preincubated for 10 mins followed by substrate addition in presence of NAD by scintillation counting relative to control. Also on record: species or system Lysate.

Data set [6] has as its system Zone of skin. Briefly: Induction of wound healing in human skin explant assessed as re-epithelialization at 5 uM administered topically for 3 days measured on day 1 post administration by hematoxylin-eosin-saffron staining based microscopic analysis (reference value: 13 +/- 7%). The class given is functional.
In data set [7] the target is T4, 11-beta-hydroxysteroid dehydrogenase 1 (Homo sapiens, UniProt P28845). Put plainly: Inhibition of human 11beta-HSD1 expressed in HEK293 cell lysates at 200 uM using [1,2-3H]-cortisone as substrate preincubated for 10 mins followed by substrate addition in presence of NADPH by scintillation counting relative to control.
Target sequence in this assay (P28845 whole entry, looked up): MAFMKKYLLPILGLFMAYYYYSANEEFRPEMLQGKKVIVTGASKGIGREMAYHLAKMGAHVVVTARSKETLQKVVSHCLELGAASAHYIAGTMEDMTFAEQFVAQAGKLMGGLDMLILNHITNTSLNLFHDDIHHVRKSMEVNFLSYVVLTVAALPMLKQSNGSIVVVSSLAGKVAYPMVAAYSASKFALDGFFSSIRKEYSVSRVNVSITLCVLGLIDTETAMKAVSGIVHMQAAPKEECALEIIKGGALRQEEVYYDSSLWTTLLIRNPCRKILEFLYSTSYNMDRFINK
The test system of data set [8] is Salmonella typhimurium. Put plainly: Mutagenicity in Salmonella typhimurium TA7001/7002/7003/7004/7005/7006 up to 100 uM in presence of rat liver S9 fraction by Ames 2 assay. The conditions noted are these: salmonella enterica subsp. enterica serovar typhimurium. It counts as toxicity, organism-based.
A short description of data set [9]: Cytotoxicity against human epidermal keratinocytes assessed as cell viability at 11 uM after 72 hrs by MTT assay relative to control. More on the design: species or system Keratinocyte. The conditions noted are these: read-out: Activity. (Tetrazolium dyes change colour on reduction, which living cells bring about.)
Data set [10] has as its target T5, Cytochrome P450 11B1, mitochondrial (Homo sapiens, UniProt P15538).
T5 sequence (P15538 whole entry): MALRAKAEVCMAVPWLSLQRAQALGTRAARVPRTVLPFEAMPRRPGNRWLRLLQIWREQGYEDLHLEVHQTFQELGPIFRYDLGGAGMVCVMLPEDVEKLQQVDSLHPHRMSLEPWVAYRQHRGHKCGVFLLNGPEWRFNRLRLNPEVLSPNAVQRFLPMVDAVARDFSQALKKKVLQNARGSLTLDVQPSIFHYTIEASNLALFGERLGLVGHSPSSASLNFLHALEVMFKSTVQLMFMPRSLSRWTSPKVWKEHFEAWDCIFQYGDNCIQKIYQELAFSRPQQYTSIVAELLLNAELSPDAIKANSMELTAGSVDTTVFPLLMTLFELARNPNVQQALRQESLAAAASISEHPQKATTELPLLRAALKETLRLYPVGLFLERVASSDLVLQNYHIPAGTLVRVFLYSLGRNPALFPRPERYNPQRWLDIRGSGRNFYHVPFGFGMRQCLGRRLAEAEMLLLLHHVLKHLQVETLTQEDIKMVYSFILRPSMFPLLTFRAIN
Put plainly: Inhibition of human CYP11B1 expressed in hamster V79MZ cells using [1,2-3H]-11-deoxycorticosterone as substrate after 6 hrs by HPTLC analysis. The class given is cell-based.

Data set [11] deals with Zone of skin. Briefly: Induction of wound healing in human skin explant assessed as re-epithelialization at 5 uM administered topically for 3 days measured on day 2 post administration by hematoxylin-eosin-saffron staining based microscopic analysis (reference value: 28 +/- 2%). It counts as functional.
The subject of data set [12] is Zone of skin. Briefly: Induction of wound healing in human skin explant assessed as re-epithelialization at 5 uM administered topically for 3 days measured on day 3 post administration by hematoxylin-eosin-saffron staining based microscopic analysis relative to control. It counts as functional.
Data set [13] in a line: Half life in human liver S9 fraction at 1 uM up to 60 mins in presence of NADPH/UDPGA by LC-MS/MS analysis. The class given is ADME, subcellular.
Data set [14] has as its target T4, 11-beta-hydroxysteroid dehydrogenase 1. Briefly: Inhibition of human 11beta-HSD1 expressed in HEK293 cell lysates at 50 uM using [1,2-3H]-cortisone as substrate preincubated for 10 mins followed by substrate addition in presence of NADPH by scintillation counting relative to control.
Target sequence in this assay (P28845 whole entry, looked up): as the sequence (P28845 whole entry, looked up) above
Data set [15] has the same target. Briefly: Inhibition of human 11beta-HSD1 expressed in HEK293 cell lysate using [1,2-3H]-cortisone as substrate preincubated for 10 mins followed by substrate addition in presence of NADPH by scintillation counting.
Target sequence in this assay (P28845 whole entry): as the sequence (P28845 whole entry, looked up) above
In data set [16] the target is T3, 11-beta-hydroxysteroid dehydrogenase type 2. Put plainly: Inhibition of human 11beta-HSD2 expressed in HEK293 cell lysates at 10 uM using [1,2,6,7-3H]-cortisol as substrate preincubated for 10 mins followed by substrate addition in presence of NAD by scintillation counting relative to control. More on the design: species or system Lysate.

As for `COc1cncc(Cc2ccc(-c3ccccc3F)nc2)c1`, at CYP17A1, the inhibition (commonly how much of the control response was suppressed) at 0.75 h, 2 µM is 5%. In addition, the inhibition at 0.35 h, 2 µM at CYP19A1 (aromatase) was determined as 2%. In addition, the half-life (commonly the time needed for the level to fall by half in the phase considered) at 1 µM in data set [1] is above 150 min; in data set [13], 19 min. The Activity result was “Non-Toxic” in the data set on Salmonella typhimurium [2]; “Non-Toxic” with Salmonella typhimurium [3]; “Non-Toxic” in the data set with Salmonella typhimurium [4]; 10% in the data set with Zone of skin [6]; “Non-Toxic” in the data set on Salmonella typhimurium [8]; 89% with Zone of skin [11]. For the same molecule, in the data set on Zone of skin [12], the Activity was found to be 98%. Besides, the “inhibition (INH)” value in [5] was “Not Active”. Besides, in data set [7], the inhibition was found to be 48%. In addition, the viability at 72 h, 11 µM in data set [9] worked out at 87%. The IC50 (commonly the midpoint of a concentration-inhibition curve) in data set [10] came out at 0.8 nM.

Take `Oc1cncc(Cc2ccc(-c3ccccc3F)nc2)c1`: the inhibition at 0.35 h, 2 µM against CYP19A1 (aromatase) was determined as 1%. In addition, inhibition in data set [10] was half-maximal at 29 nM (IC50). Besides, the half-life at 1 µM in data set [13] worked out at 21 min.

In turn, `Oc1cncc(Cc2cnc(-c3ccccc3)s2)c1` registered an IC50 in data set [10] of 77 nM.

In the case of `CC(C)(C(=O)c1cccnc1)c1cccnc1` [METYRAPONE], the inhibition at 0.35 h, 2 µM on CYP19A1 (aromatase) is 0%. Also, the inhibition in data set [14] is 54%; in [7], 70%. In addition, the “inhibition (INH)” value in data set [5] is reported as “Not Active”. Moreover, the half-life at 1 µM in [13] is 49 min.

In data set [10], `Oc1cncc(Cc2cc(-c3ccccc3)no2)c1` came in with an IC50 of 120 nM.

Take `Cn1nc(-c2ccccc2)cc1Cc1cncc(O)c1`: the inhibition at 0.75 h, 2 µM on CYP17A1 worked out at 10%. This molecule also gave an inhibition at 0.35 h, 2 µM on CYP19A1 (aromatase) of 0%. In addition, the IC50 in [15] was 1620 nM; in [10], 17 nM. For the same molecule, in [16], the “inhibition (INH)” value is “Not Active”. The half-life at 1 µM in data set [13] worked out at 33 min.

For the origin of these results see ChEMBL document CHEMBL4251585, “Accelerated skin wound healing by selective 11β-Hydroxylase (CYP11B1) inhibitors” (Eur J Med Chem, 2018).
